{"source": "paper PMC8307506", "about": "“Identification of Dihydromyricetin and Metabolites in Serum and Brain Associated with Acute Anti-Ethanol Intoxicating Effects in Mice” (International Journal of Molecular Sciences, 2021)", "experiment": "Quantification of DHM in brain samples", "format": "in vivo, mice", "conditions": "for Brain Concentration 15 min post DHM: mean ± SEM", "procedure": "Eight-week-old male and female C57BL/6J mice (Jackson’s Laboratories, Bar Harbor, ME, USA) were housed 4 mice to a cage (separated by sex) and maintained on 12-h light, 12-h dark cycles (lights on at 0700 h) in the animal facility at the Department of Animal Sciences, Rutgers University. Following 1-week acclimation, animals were given ad libitum access to water and a polyphenol-free diet (PFD; 3.82 kcal/g, 10% fat, 20% protein, 70% carbohydrate; D12450H; Research Diets, Inc., New Brunswick, NJ, USA) for at least 10 days. For PK studies, after an overnight fast, mice were administered 50 mg/kg DHM (dissolved in 0.9% saline with 10% DMSO) by either IP injection or oral gavage. Oral gavage was performed using single-use, sterile plastic feeding tubes for mice (20 ga × 30 mm; cat# FTP-20-30, Instech Laboratories, (Plymouth Meeting, PA, USA). Mice were deeply anesthetized with 5% isoflurane mixed with oxygen, and blood was collected by cardiac puncture. Following cardiac puncture, animals were exsanguinated and transcardial perfusion with 0.9% saline was performed to ensure blood removal from the brain tissue. Blood and brain samples were collected from a total of 85 mice at 0.25, 0.75, 1.5, 3, 6, 12, 24 h (3–4 mice for each sex and timepoint). Tissues were immediately homogenized with 0.2% formic acid at 1:2 (w/v), and frozen at −80 °C until analysis. Blood was centrifuged at 3000× g for 10 min at 4 °C to isolate serum. For efficacy studies, mice (n = 8/sex) were fasted at 5 h prior to Ethanol gavage 5 g/kg (37% Ethanol in water). DHM 50 mg/kg IP (dissolved in 0.9% saline with 10% DMSO) was administered at 0, 15, 45, 90 and 180 min prior to Ethanol oral gavage. Each mouse was tested at each time point 7 days apart over 6-week period. At the time of Ethanol gavage, mice were placed in oversized conical holders (L: 152 mm X W: 37 mm) and observed for ability to return upright upon being placed in a supine position. Duration of LORR was determined by ability to return upright 3 times within 30 s. To determine whether ethanol-induced tolerance developed, one week (Week 1; Baseline) prior to the 6-week repeated DHM dosing study all mice were oral dose with ethanol (5 g/kg) without any IP injection and LORR was measured. Mice were then re-tested in a similar fashion with oral ethanol 1 week after the DHM 6-week period (Week 8; Post). […] All animal studies were approved by the Institutional Animal Care and Use Committee of Rutgers University (Bello; PROTO999900014, OLAW #A3262-01, 15 March 2017) and complied with NIH Guide for the Care and Use of Laboratory Animals.\nWhole brain samples were homogenized in FA. All brain homogenates were stored at −80 °C and conditioned to room temperature prior to analysis. An aliquot of 300 µL of brain homogenate was added to 50 µL IS solution (417 ng/mL in EtOAc) and 500 µL of EtOAc in an Eppendorf tube. Samples were then vortexed for 30 s and sonicated for 1 min. Samples were centrifuged for 2 min at 3000× g and the supernatant transferred to a glass vial with 10 µL of 2% ascorbic acid in methanol. Samples were extracted two more times with 500 µL EtOAc and the supernatant transferred to the corresponding vial and dried under vacuum. Each sample was then reconstituted with 100 µL of 45% MeOH with 0.1% FA, centrifuged, and aliquoted into an HPLC vial for analysis.\nAn Agilent 1290 Infinity II UPLC system interfaced with an Agilent 6470 Triple Quadrupole Mass Spectrometer with an electrospray ionization source (Agilent Technology, Palo Alto, CA, USA) was used for sample analysis. An Waters Acquity UPLC BEH C8 column (2.1 × 150 mm, 1.7 μm) (Milford, MA, USA) column with a VanGuard Acquity C8 guard column (2.1 × 5 mm, 1.7 μm) (Milford, MA, USA) was used for chromatographic separation. The binary mobile phases consisted of water with 0.1% FA (phase A) and acetonitrile (ACN) with 0.1% formic acid (phase B). The flow rate was set at 0.450 mL/min. […]", "data": [{"smiles": "O=C1c2c(O)cc(O)cc2O[C@H](c2cc(O)c(O)c(O)c2)[C@H]1O", "note": "[DHM, Dihydromyricetin]", "values": [{"measurement": "Concentration in brain tissue", "setting": "15 min post DHM 50 mg/kg PO or IP, male and female mice, range over groups", "value": "50.9 to 861.5", "unit": "nmol/g"}, {"measurement": "Detection of DHM in brain samples", "setting": "45 min or longer post PO or IP administration of DHM 50 mg/kg", "value": "not detected"}, {"measurement": "Brain Concentration 15 min post DHM", "setting": "female mice, DHM 50 mg/kg IP", "value": "864 ± 220", "unit": "nmol/g"}, {"measurement": "Brain Concentration 15 min post DHM", "setting": "female mice, DHM 50 mg/kg PO", "value": "50.9 ± 2.6", "unit": "nmol/g"}, {"measurement": "Brain Concentration 15 min post DHM", "setting": "male mice, DHM 50 mg/kg IP", "value": "672 ± 85", "unit": "nmol/g"}, {"measurement": "Brain Concentration 15 min post DHM", "setting": "male mice, DHM 50 mg/kg PO", "value": "423 ± 66", "unit": "nmol/g"}]}]}
